Here are results for two compounds from patent US7718638B2, “(20R)-23,23-difluoro-2-methylene-19-nor-bishomopregnacalciferol-vitamin D analogs” (Wisconsin Alumni Research Foundation, priority 2007, dated 2010).

For experiment [1], the system named is HL-60 cells. The experiment in a line: HL-60 cell differentiation (nitro blue tetrazolium reduction). Particulars: FIG. 2; for EC50: HL-60 cells, 4 days. Type of experiment: cell-based, human. How it is done: The study drugs were dissolved in ethanol and the concentrations determined using UV spectrophotometry. Serial dilutions were prepared so that a range of drug concentrations could be tested without changing the final concentration of ethanol (≦0.2%) present in the cell cultures.
Human promyelocytic leukemia (HL60) cells were grown in RPMI-1640 medium containing 10% fetal bovine serum. The cells were incubated at 37° C. in the presence of 5% CO2.
HL60 cells were plated at 1.2×10^5 cells/ml. Eighteen hours after plating, cells in duplicate were treated with drug. Four days later, the cells were harvested and a nitro blue tetrazolium reduction assay was performed (Collins et al., 1979; J. Exp. Med. 149:969-974). The percentage of differentiated cells was determined by counting a total of 200 cells and recording the number that contained intracellular black-blue formazan deposits. Verification of differentiation to monocytic cells was determined by measuring phagocytic activity (data not shown).

The subject of experiment [2] is Sprague-Dawley rats. The experiment in a line: Bone calcium mobilization (serum calcium) in vitamin D-deficient rats. Type of experiment: in vivo, rat. Particulars: FIG. 4; for bone calcium mobilization (serum calcium levels): dose not given, vitamin D-deficient rats on 0.02% Ca diet; for bone calcium mobilization: rats on 0.02% Ca diet. On the procedure:
(§1) Intestinal Calcium Transport and Bone Calcium Mobilization
(§2) Male, weanling Sprague-Dawley rats were placed on Diet 11 (0.47% Ca) diet+AEK oil for one week followed by Diet 11 (0.02% Ca)+AEK oil for 3 weeks. The rats were then switched to a diet containing 0.47% Ca for one week followed by two weeks on a diet containing 0.02% Ca. Dose administration began during the last week on 0.02% calcium diet. Four consecutive ip doses were given approximately 24 hours apart. Twenty-four hours after the last dose, blood was collected from the severed neck and the concentration of serum calcium determined as a measure of bone calcium mobilization. The first 10 cm of the intestine was also collected for intestinal calcium transport analysis using the everted gut sac method.

The subject of experiment [3] is Sprague-Dawley rats. The experiment in a line: Intestinal calcium transport (everted gut sac) in vitamin D-deficient rats. Type of experiment: in vivo, rat. Particulars: FIG. 5; for intestinal calcium transport: everted gut sac. How it is done: as §1, §2
Experiment [4] has as its target T1, full-length recombinant rat vitamin D receptor (Rattus norvegicus, UniProt P13053).
T1 construct: Full-length recombinant rat receptor was expressed in E. coli; histidine tag (C); made in house; host or cells: E. coli BL21 (DE3) Codon Plus RIL
T1 sequence (P13053 1-423): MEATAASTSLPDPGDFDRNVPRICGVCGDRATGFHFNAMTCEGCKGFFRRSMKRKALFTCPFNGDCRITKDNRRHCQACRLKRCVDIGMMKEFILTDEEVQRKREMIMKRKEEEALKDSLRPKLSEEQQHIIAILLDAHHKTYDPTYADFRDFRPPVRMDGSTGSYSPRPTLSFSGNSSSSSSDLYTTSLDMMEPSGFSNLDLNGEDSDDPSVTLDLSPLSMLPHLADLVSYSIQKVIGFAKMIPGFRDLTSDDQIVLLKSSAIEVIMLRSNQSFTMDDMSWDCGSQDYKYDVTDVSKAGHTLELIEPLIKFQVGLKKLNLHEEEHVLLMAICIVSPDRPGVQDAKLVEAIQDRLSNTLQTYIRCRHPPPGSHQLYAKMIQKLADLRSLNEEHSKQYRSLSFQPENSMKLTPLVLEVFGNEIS
The experiment in a line: Vitamin D receptor competitive binding with [3H]-1,25(OH)2D3. Particulars: FIG. 1. From the text:
Vitamin D Receptor Binding
Full-length recombinant rat receptor was expressed in E. coli BL21 (DE3) Codon Plus RIL cells and purified to homogeneity using two different column chromatography systems. The first system was a nickel affinity resin that utilizes the C-terminal histidine tag on this protein. The protein that was eluted from this resin was further purified using ion exchange chromatography (S-Sepharose Fast Flow). Aliquots of the purified protein were quick frozen in liquid nitrogen and stored at −80° C. until use. For use in binding assays, the protein was diluted in TEDK50 (50 mM Tris, 1.5 mM EDTA, pH 7.4, 5 mM DTT, 150 mM KCl) with 0.1% Chaps detergent. The receptor protein and ligand concentration were optimized such that no more than 20% of the added radiolabeled ligand was bound to the receptor.
Radiolabeled and unlabeled ligands were added to 100 mcl of the diluted protein at a final ethanol concentration of ≦10%, mixed and incubated overnight on ice to reach binding equilibrium. The following day, 100 mcl of hydroxylapatite slurry (50%) was added to each tube and mixed at 10-minute intervals for 30 minutes. […] After the final wash, the pellets were transferred to scintillation vials containing 4 ml of Biosafe II scintillation cocktail, mixed and placed in a scintillation counter. Total binding was determined from the tubes containing only radiolabeled ligand.

The subject of experiment [5] is 24-hydroxylase (24Ohase) gene promoter in ROS 17/2.8 (bone) cells. As to the kind of experiment: In vitro transcription assay (24-hydroxylase promoter luciferase reporter). Type of experiment: cell-based. Particulars: FIG. 3. On the procedure: In Vitro Transcription Assay
Transcription activity was measured in ROS 17/2.8 (bone) cells that were stably transfected with a 24-hydroxylase (24Ohase) gene promoter upstream of a luciferase reporter gene (Arbour et al., 1998). Cells were given a range of doses. Sixteen hours after dosing the cells were harvested and luciferase activities were measured using a luminometer.
RLU=relative luciferase units.
For orientation: In a reporter assay the amount or activity of a reporter protein is the signal.

“Also recorded” adds a separate entry of the source.

As usually defined, the EC50 is the concentration at which the effect is half-maximal. In experiment [1], `C=C1/C(=C\C=C2/CCC[C@]3(C)[C@@H]([C@H](C)CCCC(C)(C)O)CC[C@@H]23)C[C@@H](O)C[C@@H]1O` [1,25(OH)2D3, 1α,25-dihydroxyvitamin D3, reference compound] yielded an EC50 of 2 nM. In addition, in experiment [2], the “bone calcium mobilization (serum calcium levels)” value is given as “increased serum calcium levels”. Also, the intestinal calcium transport result in experiment [3] (87 pmol/day) is given as “promotes a significant increase”.
Usually Ki stands for a dissociation constant, usually derived from enzyme kinetics or from competition with a known ligand. Consider `C=C1[C@H](O)CC(=C/C=C2\CCC[C@]3(C)[C@@H]([C@@H](C)CC(F)F)CC[C@@H]23)C[C@H]1O` [FF-44, (20R)-23,23-difluoro-1α-hydroxy-2-methylene-19-nor-bishomopregnacalciferol], for which, in experiment [4] (full-length recombinant rat VDR, read-out: Ki, competition with [3H]-1,25(OH)2D3 for binding to the vitamin D receptor), the inhibition constant (Ki) is 0.2 nM. Further, in experiment [4] (in words), the “binding to the vitamin D receptor as compared to 1,25-(OH)2D3” value is “bound almost equally”. The EC50 was 100 nM in experiment [1] (Homo sapiens, 96 h) and 10 nM in experiment [5] (ROS 17/2.8 cells, 24Ohase-luciferase, 16 h, read-out: EC50, transcriptional activity in bone cells). In addition, the “potency on HL-60 cell differentiation as compared to 1,25(OH)2D3” value in experiment [1] (in words) is reported as “almost as potent as 1,25(OH)2D3”. Moreover, the “transcriptional activity in bone cells as compared to 1α,25-dihydroxyvitamin D3” value in experiment [5] (in words) is given as “about the same transcriptional activity”. The bone calcium mobilization result in experiment [2] (2340 pmol/day ip for 4 consecutive days) is “did not result in mobilization of bone calcium”; in experiment [2] (35100 pmol/day ip for 4 consecutive days), “without any effect”. Further, in experiment [2], the “bone calcium mobilization (serum calcium levels)” value was “very little bone calcium mobilization activity; also recorded: little, if any, activity in mobilizing calcium from bone”. Moreover, the intestinal calcium transport result in experiment [3] (2340 pmol/day) is reported as “does not promote intestinal calcium transport”; in experiment [3] (35100 pmol/day) it was “no significant intestinal calcium transport activity”. Also, the “intestinal calcium transport activity as compared to 1,25(OH)2D3” value in experiment [3] (in words, dose not stated) is listed as “very little activity”.
